Values joined by “and” are separate entries in the source; they are usually repeats but may differ in a detail not shown here. Identical values can stand only once. Toxic doses and inconclusive results are not listed.
Tested on: CD2F1 mice, L1210 leukemia ip, survival T/C
Experiment: NCI In Vivo Anticancer Drug Screen. Data for tumor model L1210 Leukemia (intraperitoneal) in CD2F1 (CDF1) mice
Conditions: higher = longer survival
Method in brief: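 Read-out first: treated-group measurement over vehicle-control measurement, expressed as a ratio. Animals bore a transplanted tumor line and were dosed with compound or vehicle.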

[1] = endpoint: mean survival time, dose: 100.0 mg/kg/injection, schedule: Q04DX003 (ip), vehicle: saline with Tween-80
[2] = endpoint: mean survival time, dose: 200.0 mg/kg/injection, schedule: Q04DX003 (ip), vehicle: saline with Tween-80
[3] = endpoint: mean survival time, dose: 400.0 mg/kg/injection, schedule: Q04DX003 (ip), vehicle: saline with Tween-80
[4] = endpoint: mean survival time, dose: 100.0 mg/kg/injection, schedule: Q01DX009 (ip), vehicle: saline with Tween-80
[5] = endpoint: mean survival time, dose: 200.0 mg/kg/injection, schedule: Q01DX009 (ip), vehicle: saline with Tween-80
[6] = endpoint: mean survival time, dose: 400.0 mg/kg/injection, schedule: Q01DX009 (ip), vehicle: saline with Tween-80
[7] = endpoint: mean survival time, dose: 50.0 mg/kg/injection, schedule: Q01DX009 (ip), vehicle: Klucel (hydroxypropylcellulose) (HPC)
[8] = endpoint: mean survival time, dose: 100.0 mg/kg/injection, schedule: Q04DX003 (ip), vehicle: Klucel (hydroxypropylcellulose) (HPC)
[9] = endpoint: mean survival time, dose: 200.0 mg/kg/injection, schedule: Q04DX003 (ip), vehicle: Klucel (hydroxypropylcellulose) (HPC)
[10] = endpoint: mean survival time, dose: 400.0 mg/kg/injection, schedule: Q04DX003 (ip), vehicle: Klucel (hydroxypropylcellulose) (HPC)
[11] = endpoint: mean survival time, dose: 10.0 mg/kg/injection, schedule: Q01DX009 (ip), vehicle: saline with Tween-80
[12] = endpoint: mean survival time, dose: 20.0 mg/kg/injection, schedule: Q01DX009 (ip), vehicle: saline with Tween-80

Nc1nc(N)nc(-c2ccncc2)n1
T/C (endpoint: mean survival time, dose: 12.5 mg/kg/injection, schedule: Q01DX009 (ip), vehicle: saline with Tween-80): 102 % of control | T/C (endpoint: mean survival time, dose: 25.0 mg/kg/injection, schedule: Q01DX009 (ip), vehicle: saline with Tween-80): 106 % of control | T/C (endpoint: mean survival time, dose: 50.0 mg/kg/injection, schedule: Q01DX009 (ip), vehicle: saline with Tween-80): 102 % of control

Cc1cc([N+](=O)[O-])cc(C)c1O
T/C [1]: 100 % of control | T/C [2]: 96 % of control | T/C [3]: 100 % of control

CCN(CC)Cc1ccc([NH-])c([NH-])c1.CCN(CC)Cc1ccc([NH-])c([NH-])c1.[Cl][Pt+2][Cl].[Cl][Pt+2][Cl].[Cl][Pt+2][Cl]
T/C (endpoint: mean survival time, dose: 3.13 mg/kg/injection, schedule: Q04DX003 (ip), vehicle: water): 103 % of control | T/C (endpoint: mean survival time, dose: 6.25 mg/kg/injection, schedule: Q04DX003 (ip), vehicle: water): 108 % of control | T/C (endpoint: mean survival time, dose: 12.5 mg/kg/injection, schedule: Q04DX003 (ip), vehicle: water): 110 % of control | T/C (endpoint: mean survival time, dose: 25.0 mg/kg/injection, schedule: Q04DX003 (ip), vehicle: water): 119 % of control | T/C (endpoint: mean survival time, dose: 50.0 mg/kg/injection, schedule: Q04DX003 (ip), vehicle: water): 89 % of control

O=C(c1ccccc1)N(C(=O)c1ccccc1)C1CCCCC1
T/C [1]: 100 % of control | T/C [2]: 94 % of control | T/C [3]: 93 % of control

O=c1ncccn1[C@@H]1O[C@H](CO)[C@H](O)C1O (stereo partly specified)
T/C (endpoint: median survival time, dose: 25.0 mg/kg/injection, schedule: Q01DX009 (ip), vehicle: saline): 114 % of control and 109 % of control | T/C (endpoint: median survival time, dose: 75.0 mg/kg/injection, schedule: Q04DX003 (ip), vehicle: saline): 102 % of control | T/C (endpoint: median survival time, dose: 100.0 mg/kg/injection, schedule: Q01DX009 (oral), vehicle: saline): 102 % of control | T/C (endpoint: median survival time, dose: 125.0 mg/kg/injection, schedule: Q01DX001 (oral), vehicle: saline): 101 % of control | T/C (endpoint: median survival time, dose: 150.0 mg/kg/injection, schedule: Q04DX003 (ip), vehicle: saline): 106 % of control | T/C (endpoint: median survival time, dose: 200.0 mg/kg/injection, schedule: Q01DX009 (oral), vehicle: saline): 110 % of control | T/C (endpoint: median survival time, dose: 250.0 mg/kg/injection, schedule: Q01DX001 (oral), vehicle: saline): 102 % of control | T/C (endpoint: median survival time, dose: 300.0 mg/kg/injection, schedule: Q04DX003 (ip), vehicle: saline): 111 % of control | T/C (endpoint: median survival time, dose: 500.0 mg/kg/injection, schedule: Q01DX001 (oral), vehicle: saline): 105 % of control | T/C (endpoint: median survival time, dose: 600.0 mg/kg/injection, schedule: Q04DX003 (ip), vehicle: saline): 114 % of control | T/C (endpoint: median survival time, dose: 800.0 mg/kg/injection, schedule: Q01DX009 (oral), vehicle: saline): 177 % of control | T/C (endpoint: median survival time, dose: 1000.0 mg/kg/injection, schedule: Q01DX001 (oral), vehicle: saline): 107 % of control | T/C (endpoint: median survival time, dose: 1200.0 mg/kg/injection, schedule: Q04DX003 (ip), vehicle: saline): 113 % of control | T/C (endpoint: median survival time, dose: 1600.0 mg/kg/injection, schedule: Q01DX009 (oral), vehicle: saline): 212 % of control | T/C (endpoint: median survival time, dose: 2000.0 mg/kg/injection, schedule: Q01DX001 (oral), vehicle: saline): 115 % of control

C/C(=N/O)c1ccc(C)cc1
T/C [4]: 94 % of control | T/C [1]: 105 % of control | T/C [5]: 91 % of control | T/C [2]: 107 % of control | T/C [6]: 93 % of control | T/C [3]: 102 % of control

CC(=O)ON1C(=O)C=CC1=O
T/C (endpoint: mean survival time, dose: 25.0 mg/kg/injection, schedule: Q01DX009 (ip), vehicle: Klucel (hydroxypropylcellulose) (HPC)): 95 % of control | T/C [7]: 90 % of control

CC1COC(C(=O)O)(c2ccccc2)O1 (stereo unspecified)
T/C (endpoint: mean survival time, dose: 100.0 mg/kg/injection, schedule: Q04DX002 (ip), vehicle: saline): 96 % of control | T/C (endpoint: mean survival time, dose: 200.0 mg/kg/injection, schedule: Q04DX002 (ip), vehicle: saline): 108 % of control | T/C (endpoint: mean survival time, dose: 400.0 mg/kg/injection, schedule: Q04DX002 (ip), vehicle: saline): 100 % of control

O=c1ccc2nc3cc(Cl)ccc3sc-2c1
T/C [8]: 94 % of control | T/C [9]: 94 % of control | T/C [10]: 94 % of control

COC12C(COC(N)=O)C3=C(C(=O)C(C)=C(N4CCN(C)CC4)C3=O)N1CC1NC12 (stereo unspecified)
T/C (endpoint: median survival time, dose: 1.5 mg/kg/injection, schedule: Q01DX001 (ip), vehicle: water): 155 % of control | T/C (endpoint: median survival time, dose: 3.0 mg/kg/injection, schedule: Q01DX001 (ip), vehicle: water): 124 % of control | T/C (endpoint: median survival time, dose: 6.0 mg/kg/injection, schedule: Q01DX001 (ip), vehicle: water): 87 % of control | T/C (endpoint: median survival time, dose: 375.0 micrograms/kg/injection, schedule: Q01DX001 (ip), vehicle: water): 102 % of control and 106 % of control | T/C (endpoint: median survival time, dose: 750.0 micrograms/kg/injection, schedule: Q01DX001 (ip), vehicle: water): 90 % of control and 102 % of control | T/C (endpoint: median survival time, dose: 1500.0 micrograms/kg/injection, schedule: Q01DX001 (ip), vehicle: water): 101 % of control and 106 % of control | T/C (endpoint: median survival time, dose: 3000.0 micrograms/kg/injection, schedule: Q01DX001 (ip), vehicle: water): 94 % of control and 106 % of control | T/C (endpoint: median survival time, dose: 6000.0 micrograms/kg/injection, schedule: Q01DX001 (ip), vehicle: water): 102 % of control and 105 % of control

CC([NH-])CC[NH-].O=[N+]([O-])O.O=[N+]([O-])O.[Pt+2] (stereo unspecified)
T/C (endpoint: mean survival time, dose: 6.25 mg/kg/injection, schedule: Q04DX003 (ip), vehicle: saline with Tween-80): 169 % of control

CCOC(=O)C1(C(=O)OCC)C(C)CC2Nc3ccccc3C(=O)N21 (stereo unspecified)
T/C (endpoint: mean survival time, dose: 100.0 mg/kg/injection, schedule: Q01DX001 (ip), vehicle: Klucel (hydroxypropylcellulose) (HPC)): 100 % of control | T/C (endpoint: mean survival time, dose: 200.0 mg/kg/injection, schedule: Q01DX001 (ip), vehicle: Klucel (hydroxypropylcellulose) (HPC)): 96 % of control | T/C (endpoint: mean survival time, dose: 400.0 mg/kg/injection, schedule: Q01DX001 (ip), vehicle: Klucel (hydroxypropylcellulose) (HPC)): 92 % of control

COc1ccc(NC(=O)Nc2cc(C)on2)c(Cl)c1
T/C [7]: 91 % of control | T/C (endpoint: mean survival time, dose: 100.0 mg/kg/injection, schedule: Q01DX009 (ip), vehicle: Klucel (hydroxypropylcellulose) (HPC)): 95 % of control | T/C [8]: 110 % of control | T/C (endpoint: mean survival time, dose: 200.0 mg/kg/injection, schedule: Q01DX009 (ip), vehicle: Klucel (hydroxypropylcellulose) (HPC)): 98 % of control | T/C [9]: 106 % of control | T/C [10]: 106 % of control

COC(=O)C(C#N)=C(C)C
T/C [11]: 110 % of control | T/C (endpoint: mean survival time, dose: 10.0 mg/kg/injection, schedule: Q04DX003 (ip), vehicle: saline): 96 % of control | T/C [12]: 101 % of control | T/C (endpoint: mean survival time, dose: 20.0 mg/kg/injection, schedule: Q04DX003 (ip), vehicle: saline): 96 % of control | T/C (endpoint: mean survival time, dose: 40.0 mg/kg/injection, schedule: Q01DX009 (ip), vehicle: saline with Tween-80): 104 % of control | T/C (endpoint: mean survival time, dose: 40.0 mg/kg/injection, schedule: Q04DX003 (ip), vehicle: saline): 96 % of control

CN(C)N=Nc1ccccc1-c1nc(N)c2ccccc2n1
T/C (endpoint: mean survival time, dose: 6.25 mg/kg/injection, schedule: Q01DX005 (ip), vehicle: water): 103 % of control | T/C (endpoint: mean survival time, dose: 12.5 mg/kg/injection, schedule: Q01DX005 (ip), vehicle: water): 88 % of control | T/C (endpoint: mean survival time, dose: 25.0 mg/kg/injection, schedule: Q01DX005 (ip), vehicle: water): 109 % of control | T/C (endpoint: mean survival time, dose: 50.0 mg/kg/injection, schedule: Q01DX005 (ip), vehicle: water): 117 % of control | T/C (endpoint: mean survival time, dose: 100.0 mg/kg/injection, schedule: Q01DX005 (ip), vehicle: water): 98 % of control

C[C@]12CCC(=O)C=C1CC[C@@H]1[C@@H]2[C@@H](O)C[C@@]2(C)[C@H]1CC[C@]2(O)C(=O)COP(=O)(O)OCC1OC(n2ccc(N)nc2=O)C(O)C1O (stereo partly specified)
T/C (endpoint: mean survival time, dose: 5.0 mg/kg/injection, schedule: Q01DX005 (ip), vehicle: other): 104 % of control | T/C (endpoint: mean survival time, dose: 10.0 mg/kg/injection, schedule: Q01DX005 (ip), vehicle: other): 110 % of control | T/C (endpoint: mean survival time, dose: 15.0 mg/kg/injection, schedule: Q01DX005 (ip), vehicle: other): 115 % of control | T/C (endpoint: mean survival time, dose: 120.0 mg/kg/injection, schedule: Q01DX005 (ip), vehicle: other): 150 % of control | T/C (endpoint: mean survival time, dose: 240.0 mg/kg/injection, schedule: Q01DX005 (ip), vehicle: other): 162 % of control

COC(=O)C(NC(=O)OCc1ccccc1)C(=O)OC
T/C [4]: 105 % of control | T/C [5]: 107 % of control | T/C [6]: 112 % of control

COC1=C(N=[N+]=[N-])C(=O)C(OC)=C(N=[N+]=[N-])C1=O
T/C (endpoint: mean survival time, dose: 5.0 mg/kg/injection, schedule: Q01DX009 (ip), vehicle: saline with Tween-80): 101 % of control | T/C (endpoint: mean survival time, dose: 5.0 mg/kg/injection, schedule: Q04DX003 (ip), vehicle: saline with Tween-80): 93 % of control | T/C [11]: 94 % of control | T/C (endpoint: mean survival time, dose: 10.0 mg/kg/injection, schedule: Q04DX003 (ip), vehicle: saline with Tween-80): 95 % of control | T/C [12]: 94 % of control | T/C (endpoint: mean survival time, dose: 20.0 mg/kg/injection, schedule: Q04DX003 (ip), vehicle: saline with Tween-80): 95 % of control

Source: PubChem BioAssay AID256 (DTP/NCI, 2004)
